The results in this text go back to US9169234B2, “Sepiapterin reductase inhibitors for the treatment of pain” (Children's Medical Center Corporation, priority 2009, dated 2015).

pIC50: −log10 of the molar value. Where two headings read alike, the source gives them in different places.

In the assay the target is recombinant human SPR (Sepiapterin Reductase) (Homo sapiens (Human), UniProt P35270). Put plainly: SPR inhibition biochemical assay with chromogenic (OD at 420 nm) and LC/MS (L-biopterin formation) read-out. Here is the method: The compounds described herein were screened for activity as inhibitors of Sepiapterin Reductase (SPR).
Bacteria were grown at 37° C., and expression of SPR protein was induced for 4 hours.
To screen for SPR inhibition, a biochemical assay based on LC/MS (and chromogenic) read-out has been developed. The LC/MS assay monitors the product formation (L-biopterin) and the chromogenic assay measures OD at 420 nm.
N-methoxyacetyl serotonin was used as a reference compound (positive control).
The exemplary assay protocol uses the following conditions: SPR (6 nM); L-Sepiapterin (50 μM); NADPH (100 μM); Na-Phosphate buffer, pH 6.5 (100 mM); 82 μL assay volume; 60 minutes incubation with compounds (0.5% final concentration in DMSO) at 37° C. in Greiner μClear® 384 well plates.
For example, the compounds of Table 1 were screened using this additional method in triplicate.

[1] abbreviates: LC/MS read-out, L-biopterin product formation, SPR 6 nM, L-Sepiapterin 50 μM, NADPH 100 μM, pH 6.5, 60 minutes at 37° C., read-out: IC50 LC/MS.
Where [2] appears, read: chromogenic read-out, OD at 420 nm, SPR 6 nM, L-Sepiapterin 50 μM, NADPH 100 μM, pH 6.5, 60 minutes at 37° C., read-out: IC50 chromogenic.

Sequence of recombinant human SPR (Sepiapterin Reductase) (P35270 whole entry): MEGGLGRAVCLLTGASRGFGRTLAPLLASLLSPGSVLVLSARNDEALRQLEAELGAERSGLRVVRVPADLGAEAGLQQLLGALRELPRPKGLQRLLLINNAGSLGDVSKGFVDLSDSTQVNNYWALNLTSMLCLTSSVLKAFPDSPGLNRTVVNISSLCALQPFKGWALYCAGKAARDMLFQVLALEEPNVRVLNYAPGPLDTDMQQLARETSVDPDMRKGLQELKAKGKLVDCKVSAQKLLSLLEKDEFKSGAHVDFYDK

As to `CC(C)C(=O)NCCc1c[nH]c2ccc(O)cc12` [(1)], the pIC50 under setting [1] was 6.48 and the pIC50 under setting [2] is 6.40.

In the case of `O=C(NCCc1c[nH]c2ccc(O)cc12)C1CC1` [(2)], the pIC50 by setting is: under setting [1], 6.47; under setting [2], 6.44.

As to `CCOCC(=O)NCCc1c[nH]c2ccc(O)cc12` [(3)], the pIC50 under setting [1] was 5.66 and the pIC50 under setting [2] is 5.55.

With `Oc1ccc2[nH]cc(CCNc3cccnc3)c2c1` [(12)], the pIC50 under setting [1] is 5.80 and the pIC50 under setting [2] was 5.68.

On to `COCC(=O)NCCc1c[nH]c2ccc(F)cc12` [(16)], for which the pIC50 was 5.55 under setting [1] and 5.47 under setting [2].

`COCC(=O)NCCc1c[nH]c2ccc(S(C)(=O)=O)cc12` [(17)]: the pIC50 reads like this: under setting [1], 5.49; under setting [2], 5.35.

Regarding `COCC(=O)NCCc1cn(C)c2ccc(O)cc12` [(21)], the pIC50 was 7.07 under setting [1] and 7.08 under setting [2].

Consider `COCC(=O)NCC(=O)c1c[nH]c2ccc(O)cc12` [(24)], for which the pIC50 under setting [1] was 6.51 and the pIC50 under setting [2] was 6.51.

For the molecule `COCC(=O)NCCc1cccc(O)c1` [(32)], the pIC50 is, setting by setting: under setting [1], 7.16; under setting [2], 7.19.

As for `COCC(=O)NCCc1c[nH]c2ccc(O)cc12` [N-Methoxyacetyl-Serotonin, reference compound], the pIC50 is 7.37 under setting [1]; 7.38 under setting [2]; 7.40 to 7.70 (reference compound (positive control), read-out not specified, read-out: IC50 measured using the screening conditions).
